# Reference: ChEMBL document CHEMBL4725412, “Augmenting the Activity of Macrolide Adjuvants against Acinetobacter baumannii” (2020)
# Legend:
# Format in all cases: functional
# Acinetobacter baumannii [1] = assay: Potentiation of clarithromycin-induced antibacterial activity against Acinetobacter baumannii 4026 assessed as fold reduction in clarithromycin MIC at 7.5 uM incubated for 16 hrs by broth microdilution method
# Acinetobacter baumannii [2] = assay: Potentiation of clarithromycin-induced antibacterial activity against Acinetobacter baumannii 3785 assessed as fold reduction in clarithromycin MIC at 7.5 uM incubated for 16 hrs by broth microdilution method
# Acinetobacter baumannii [3] = assay: Antibacterial activity against Acinetobacter baumannii 4456 assessed as reduction in microbial growth incubated for 16 hrs by broth microdilution method
# Acinetobacter baumannii [4] = assay: Potentiation of clarithromycin-induced antibacterial activity against Acinetobacter baumannii 4052 assessed as fold reduction in clarithromycin MIC at 7.5 uM incubated for 16 hrs by broth microdilution method
# Acinetobacter baumannii [5] = assay: Antibacterial activity against Acinetobacter baumannii 4795 assessed as reduction in microbial growth incubated for 16 hrs by broth microdilution method
# Acinetobacter baumannii [6] = assay: Potentiation of clarithromycin-induced antibacterial activity against Acinetobacter baumannii 4025 assessed as fold reduction in clarithromycin MIC at 7.5 uM incubated for 16 hrs by broth microdilution method
# Acinetobacter baumannii [7] = assay: Potentiation of clarithromycin-induced antibacterial activity against Acinetobacter baumannii 4269 assessed as fold reduction in clarithromycin MIC at 7.5 uM incubated for 16 hrs by broth microdilution method
# Acinetobacter baumannii [8] = assay: Antibacterial activity against Acinetobacter baumannii 8967 assessed as reduction in microbial growth incubated for 16 hrs by broth microdilution method
# Acinetobacter baumannii [9] = assay: Antibacterial activity against Acinetobacter baumannii 3806 assessed as reduction in microbial growth incubated for 16 hrs by broth microdilution method
# Acinetobacter baumannii [10] = assay: Antibacterial activity against Acinetobacter baumannii 4878 assessed as reduction in microbial growth incubated for 16 hrs by broth microdilution method
# Acinetobacter baumannii [11] = assay: Antibacterial activity against Acinetobacter baumannii 5197 assessed as reduction in microbial growth incubated for 16 hrs by broth microdilution method
compound,measurement,setting,value
Cl.Nc1nc(-c2ccc(NC(=O)Nc3cc(Br)cc(Br)c3)cc2)c[nH]1,fold change (FC),Acinetobacter baumannii [1],16
same,fold change (FC),Acinetobacter baumannii [2],16
same,MIC,Acinetobacter baumannii [3],25 µM
same,fold change (FC),Acinetobacter baumannii [4],16
same,MIC,Acinetobacter baumannii [5],25 µM
same,fold change (FC),Acinetobacter baumannii [6],16
same,fold change (FC),Acinetobacter baumannii [7],16
same,MIC,Acinetobacter baumannii [8],25 µM
same,MIC,Acinetobacter baumannii [9],25 µM
same,MIC,Acinetobacter baumannii [10],25 µM
same,MIC,Acinetobacter baumannii [11],25 µM
